This is an account of results in ChEMBL document CHEMBL1150605, “Isolation of a new mycalolide from the marine sponge Mycale izuensis” (J Nat Prod, 2002).

Values after ≈ are worked out from the molar mass of the structure shown.

This assay deals with HeLa. The assay is described as follows: Cytotoxicity against human HeLa cells. It is filed as functional, cell-based.

`CO[C@H]1C/C=C/c2nc(co2)-c2nc(co2)-c2nc(co2)[C@@H](OC)[C@@H](C)C(=O)/C=C/C[C@H](O)CC(=O)O[C@@H](C[C@H](OC)[C@@H](C)CC[C@@H](O)[C@@H](C)[C@H](O)[C@H](C)/C=C/N(C)C=O)[C@@H]1C` [30,32-DIHYDROXYMYCALOLIDE A] displayed a concentration for half-maximal inhibition (IC50) of 2.6 ng/mL (≈ 2.99 nM).
